Experimental data as given in ChEMBL document CHEMBL6153166, “Innovative Protein Degraders for Targeted Cancer and Viral Therapy” (ACS Med Chem Lett, 2025).

Molecular target: Sequestosome-1 (Homo sapiens, UniProt Q13501)
Test: Inhibition of biotin-labeled Halo/His-tagged p62 (unknown origin) incubated for 30 mins by AlphaLISA competition assay

Chain of Sequestosome-1 (Q13501 whole entry): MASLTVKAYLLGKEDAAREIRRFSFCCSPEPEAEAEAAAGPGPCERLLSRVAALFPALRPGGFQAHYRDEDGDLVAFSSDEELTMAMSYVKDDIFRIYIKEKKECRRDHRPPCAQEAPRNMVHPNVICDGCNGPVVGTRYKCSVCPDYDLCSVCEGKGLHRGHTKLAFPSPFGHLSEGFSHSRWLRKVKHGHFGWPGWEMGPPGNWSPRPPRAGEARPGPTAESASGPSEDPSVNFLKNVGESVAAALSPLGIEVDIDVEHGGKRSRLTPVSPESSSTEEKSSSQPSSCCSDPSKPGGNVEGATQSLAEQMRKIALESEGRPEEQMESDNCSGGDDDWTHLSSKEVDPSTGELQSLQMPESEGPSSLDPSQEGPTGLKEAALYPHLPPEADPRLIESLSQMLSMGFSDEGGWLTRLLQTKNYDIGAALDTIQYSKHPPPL

IC50 [nM] | Structure (SMILES)
≤ 1500 | CCc1cc2c(cc1N1CCN(C(=O)CCCN3CC[C@@H](NC(=O)[C@@H](N)CCCn4ccnc4N)C3)CC1)C(C)(C)C1Nc3cc(C#N)ccc3C1C2=O (stereo partly specified)
≤ 1500 | CCc1cc2c(cc1N1CCN(C(=O)CCCN3C[C@H](NC(=O)[C@@H](N)CCCn4ccnc4N)C(C)(C)C3)CC1)C(C)(C)C1Nc3cc(C#N)ccc3C1C2=O (stereo partly specified)
≤ 1500 | CCc1cc2c(cc1N1CCN(C(=O)CCCN3C[C@H](NC(=O)[C@@H](N)CCCc4cccnc4N)C(C)(C)C3)CC1)C(C)(C)C1Nc3cc(C#N)ccc3C1C2=O (stereo partly specified)
≤ 1500 | CCc1cc2c(cc1N1CCN(C(=O)CCCN3C[C@H](NC(=O)[C@@H](N)CCCn4ccnc4N)C4(CC4)C3)CC1)C(C)(C)C1Nc3cc(C#N)ccc3C1C2=O (stereo partly specified)
≤ 1500 | CCc1cc2c(cc1N1CCN(C(=O)CCCN3C[C@H](NC(=O)[C@@H](N)CCCc4cncnc4N)C(C)(C)C3)CC1)C(C)(C)C1Nc3cc(C#N)ccc3C1C2=O (stereo partly specified)
≤ 1500 | CCc1cc2c(cc1N1CCN(C(=O)CCCN3CCC(C)(C)C(NC(=O)[C@@H](N)CCCn4ccnc4N)C3)CC1)C(C)(C)C1Nc3cc(C#N)ccc3C1C2=O (stereo partly specified)
